Patent US4680293A, “3-imidazolylalkyl-, triazolylalkyl-, pyridinylalkyl-1,2,3-benzotriazin-4(3H)-ones and derivatives thereof” (American Cyanamid Company, priority 1986, dated 1987)

Target: T1, thromboxane synthetase (Rattus norvegicus, UniProt P49430)
T1 sequence (P49430 1-533): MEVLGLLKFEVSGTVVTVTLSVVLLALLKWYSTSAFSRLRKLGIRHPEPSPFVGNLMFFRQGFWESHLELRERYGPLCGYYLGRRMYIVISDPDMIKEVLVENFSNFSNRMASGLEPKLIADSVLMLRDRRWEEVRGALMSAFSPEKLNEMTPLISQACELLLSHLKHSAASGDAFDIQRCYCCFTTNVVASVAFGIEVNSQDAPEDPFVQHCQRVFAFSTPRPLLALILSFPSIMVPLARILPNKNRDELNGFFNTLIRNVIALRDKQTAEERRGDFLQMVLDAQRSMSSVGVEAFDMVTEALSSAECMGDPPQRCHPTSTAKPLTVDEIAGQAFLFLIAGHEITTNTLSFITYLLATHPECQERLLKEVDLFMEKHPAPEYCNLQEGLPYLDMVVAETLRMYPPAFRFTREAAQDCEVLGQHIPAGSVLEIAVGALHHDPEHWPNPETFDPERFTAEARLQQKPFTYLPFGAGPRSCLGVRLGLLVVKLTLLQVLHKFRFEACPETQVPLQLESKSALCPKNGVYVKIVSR
Assay: Inhibition of thromboxane formation in washed SHR platelets (TXB2 by direct radioimmunoassay)
Conditions: read-out: % Inhibition (of TXB2 formation), drug at 10^-4 M, 10 minutes at 37° C.
Experimental: From Okamoto-Aoki spontaneously hypertensive rats (SHR) (Taconic Farms, Germantown, NY) between 19 and 24 weeks in age, under urethane anesthesia, 10 μl of arterial blood was collected in one ml of 3.2% sodium citrate in a polystyrene tube. The blood was diluted with 3 ml cold saline and centrifuged at room temperature for 15 minutes at 460×g. The platelet rich plasma (PRP) was separated. The platelets were isolated by centrifuging the PRP for 10 minutes at 1060×g and were washed in 4 ml cold oxygenated Krebs phosphate buffer, pH 7.4. The chilled platelets recovered from centrifuging at 800×g for 10 minutes were resuspended in oxygenated Krebs phosphate buffer and diluted to contain 4.5-6.0×10^4 platelets/μl.
The inhibition of thromboxane (TX) formation was studied by determining the concentration of thromboxane B2 (TXB2), the stable hydrolysis product of TXA2. Assay samples, prepared on ice, contained 200 μl platelet suspension, 50 μl saline, and 50 μl vehicle or drug under study at a concentration of 10^-4 M (with OKY-1581, UK-37248-01, 1-benzylimidazole, and/or indomethacin used as standards). […] The TXB2 content for each sample was determined by a direct radioimmunoassay (RIA) utilizing a TXB2 specific RIA kit purchased from New England Nuclear, Boston, MA and results expressed as pg TXB2 formed minute^-1 sample^- 1, from which the percent inhibition of TXB2 formation was calculated.

| inhibition at 100 µM [%] | SMILES |
| --- | --- |
| 79 | O=c1c2cc(Cl)ccc2nnn1CCCCn1ccnc1 |
| 97 | CC(Cn1ccnc1)Cn1nnc2ccc(Cl)cc2c1=O (centres unmarked) [6-Chloro-3-[3-(1H-imidazol-1-yl)-2-methylpropyl]-1,2,3-benzotriazin-4(3H)-one] |
